Experimental data reported in patent US12642794B2, “Dose regimens for use of LY3154207 in the treatment of dopaminergic CNS disorders” (Eli Lilly and Company, priority 2018, dated 2026).

What was measured:
adult rhesus monkey [1] = assay: Spatial Delayed Response Task, spatial working memory; type: in vivo, rhesus macaque
adult rhesus monkey [2] = assay: as above; type: in vivo, rhesus macaque; details: for spatial working memory performance after repeat of the dose: 2.5 mg/kg on Day 1 and repeated on Day 5
Method: Experimental Overview: A group of both aged and non-aged animals was tested at a single dose of 2.5 mg/kg and their performance was followed daily for the first six days and on alternate days thereafter. This was to ascertain that we could repeat the effects we observed previously at the lowest possible dose. The effects of repeating this dose on Day 5, at the […] mark, were examined in order to determine whether (i) an immediate diminution in performance could still be seen the next day and (ii) whether the treatment could achieve a relatively consistent and enduring enhancement of performance in the following days. Since this dose was also capable of inducing a short term deficit in performance, the effects of single administrations at lower doses of 0.1 and 1.0 mg/kg were examined.
All animals were rhesus macaques except one stumptail (Macaca arctoides). Details of the animal demographics are given with each set of results. It was desired to have younger animals in each study, however a preponderance of aged animals were studied, and females outnumbered males by 2 or 3 to one. The Spatial Delayed Response Task is established as one of the most reliable, sensitive, and valuable models in which to test spatial working memory in primates. The Spatial Delayed Response Task is implemented rigidly in a completely systematic format that is uniform within and between animals and between studies. The Spatial Delayed Response Task is designed to normalize performance across animals such they all normally perform at ˜70% correct. The Spatial Delayed Response Task directly challenges the same spatial working memory circuitry in human and nonhuman primates, including dorsolateral prefrontal cortex, posterior parietal cortex and MD thalamus. The Spatial Delayed Response Task is sensitive to multiple neuropharmacological manipulations, whether administered locally or systemically, including dopaminergic, nicotinic, glutamatergic, and GABAergic agents. In this task one of several well locations are baited with food in view of the animal and then covered with identical plaques. An opaque shutter is then lowered for one of 5 variable delays, and then raised to allow the animal to make a response to one of the well locations to retrieve the food treat. Each animal is stabilized (65-75% correct ±≤2.5%) prior to commencing any administration by varying the number of wells and the lengths of the delay. Each testing session consists of 20 trials, 4 trials at each of 5 delays (distributed semi-randomly) ranging from 0, 1, 2, 3, and 4 N seconds, where N is incremented from 1 to 10 according to ability. The number of wells ranges for 2 to 7 and thus stability is achieved by gradually varying the number of wells and the N factor. Original baseline is achieved on initial training and is standardized over twenty sessions, thereafter an animal typically undergoes regular testing to ensure a reasonably stable baseline. An absolute minimum of three baseline sessions are required prior to any experimental condition. Animals are not food deprived but instead reward for correct responses with their most preferred treats (such as yoghurt raisins, gummy bears, and almonds) and then fed their normal ration of nutritional biscuits shortly after cognitive testing.
DPTQ was formulated as a suspension in 20% Captisol/PBS at pH8. Great care was taken to protect the compound in sonication and it was injected (at a volume of 0.2 ml/kg) via a 21G hypodermic needle (to avoid blockage) into the gluteus maximus within 2 hours of formulation (kept on ice). Vehicle was refrigerated in sterile injectable vials for up to one month. Animals were fully acclimated to all procedures prior to enrollment into any study. They were assigned on a readiness for study basis and where relevant, assignment was semirandom between vehicle and treatment arms. IM injections were performed in the animals' home cage 1 hour prior to cognitive testing. […]

With `C[C@H]1c2cccc(CC(C)(C)O)c2C[C@H](CO)N1C(=O)Cc1c(Cl)cccc1Cl` [DPTQ, 2-(2,6-dichlorophenyl)-1-((1S,3R)-5-(2-hydroxy-2-methylpropyl)-3-(hydroxymethyl)-1-methyl-3,4-dihydroisoquinolin-2 (1H)-yl) ethan-1-one] the “acute effect on spatial working memory performance” value (adult rhesus monkey [1]; acute doses of 2.5 to 10 mg/kg IM) was “trend in reducing spatial working memory performance”, the “protection against ketamine induced cognitive deficits” value (adult rhesus monkey [1]; rhesus monkey, in vivo) was “little effect” and the “diminution in spatial working memory performance” value (adult rhesus monkey [2]; 0.1 mg/kg) was “No sign of any diminution in performance”. For the same molecule, the “enhancement of spatial working memory performance” value (shortened to “enhancement”) (adult rhesus monkey [2]; 0.1 mg/kg, 2-week period) was “modest”, the “spatial working memory performance versus baseline” value (adult rhesus monkey [2]; 0.1 mg/kg, Day 4) was “significant improvement over baseline” and the “early deficit in spatial working memory” value (adult rhesus monkey [2]; 1.0 mg/kg) was “not evident”. The “enhancement” value (adult rhesus monkey [2]; 1.0 mg/kg, significance on Day 5) was “stronger than for the 0.1 mg/kg dose”, the “effect on spatial working memory performance” value (adult rhesus monkey [2]; 2.5 mg/kg IM, Day 1) was “No immediate effect” and the “impairment of spatial working memory performance” value (adult rhesus monkey [2]; 2.5 mg/kg IM, Day 3) was roughly 10%. The “enhancement” value (adult rhesus monkey [2]; 2.5 mg/kg IM, starting from Day 4, prolonged) was roughly 10%, the “duration of sustained positive effect” value (adult rhesus monkey [2]; 2.5 mg/kg and above) was no less than 14 days and the “spatial working memory performance after repeat of the dose” value (adult rhesus monkey [2]; Day 6) was “distinctive drop in performance”. The “spatial working memory performance after repeat of the dose” value (adult rhesus monkey [2]; after Day 6) was “enhancement for the subsequent week”, the “difference between aged and non-aged animals” value (adult rhesus monkey [2]; 2.5 mg/kg, combined scores for Days 4, 5, and 6) was “No significant difference” and the “spatial working memory performance” value (adult rhesus monkey [2]; 24 to 48 hours post injection) was “substantially impaired”. For the same molecule, the “spatial working memory performance” value (adult rhesus monkey [2]; 96 to 120 hours post injection) was “considerably enhanced”.
